# Data reported in ChEMBL document CHEMBL4256941, “Histone demethylase inhibitors” (2016).
# Key:
# [1] = target: Lysine-specific demethylase 5A (Homo sapiens, UniProt P29375); assay: Inhibition of recombinant human C-terminal FLAG-tagged JARID1A (1 to 1090 residues) expressed in baculovirus infected sf9 cells using H3K4me3-biotin peptide as substrate after 30 mins in presence of alpha-ketoglutaric acid by LANCE TR-FRET assay
# [2] = target: Lysine-specific demethylase 5B (Homo sapiens, UniProt Q9UGL1); assay: Inhibition of recombinant human N-terminal His-FLAG tagged JARID1B (2 to 751 residues) expressed in baculovirus infected sf9 cells using H3K4me3-biotin peptide as substrate after 30 mins in presence of alpha-ketoglutaric acid by LANCE TR-FRET assay
# [3] = target: T1, Lysine-specific demethylase 4C (Homo sapiens, UniProt Q9H3R0); assay: Inhibition of recombinant human N-terminal GST-tagged JMJD2C (2 to 372 residues) expressed in baculovirus infected sf9 cells using H3K9me3-biotin peptide as substrate after 30 mins in presence of alpha-ketoglutaric acid by LANCE TR-FRET assay
# T1 sequence (Q9H3R0 whole entry): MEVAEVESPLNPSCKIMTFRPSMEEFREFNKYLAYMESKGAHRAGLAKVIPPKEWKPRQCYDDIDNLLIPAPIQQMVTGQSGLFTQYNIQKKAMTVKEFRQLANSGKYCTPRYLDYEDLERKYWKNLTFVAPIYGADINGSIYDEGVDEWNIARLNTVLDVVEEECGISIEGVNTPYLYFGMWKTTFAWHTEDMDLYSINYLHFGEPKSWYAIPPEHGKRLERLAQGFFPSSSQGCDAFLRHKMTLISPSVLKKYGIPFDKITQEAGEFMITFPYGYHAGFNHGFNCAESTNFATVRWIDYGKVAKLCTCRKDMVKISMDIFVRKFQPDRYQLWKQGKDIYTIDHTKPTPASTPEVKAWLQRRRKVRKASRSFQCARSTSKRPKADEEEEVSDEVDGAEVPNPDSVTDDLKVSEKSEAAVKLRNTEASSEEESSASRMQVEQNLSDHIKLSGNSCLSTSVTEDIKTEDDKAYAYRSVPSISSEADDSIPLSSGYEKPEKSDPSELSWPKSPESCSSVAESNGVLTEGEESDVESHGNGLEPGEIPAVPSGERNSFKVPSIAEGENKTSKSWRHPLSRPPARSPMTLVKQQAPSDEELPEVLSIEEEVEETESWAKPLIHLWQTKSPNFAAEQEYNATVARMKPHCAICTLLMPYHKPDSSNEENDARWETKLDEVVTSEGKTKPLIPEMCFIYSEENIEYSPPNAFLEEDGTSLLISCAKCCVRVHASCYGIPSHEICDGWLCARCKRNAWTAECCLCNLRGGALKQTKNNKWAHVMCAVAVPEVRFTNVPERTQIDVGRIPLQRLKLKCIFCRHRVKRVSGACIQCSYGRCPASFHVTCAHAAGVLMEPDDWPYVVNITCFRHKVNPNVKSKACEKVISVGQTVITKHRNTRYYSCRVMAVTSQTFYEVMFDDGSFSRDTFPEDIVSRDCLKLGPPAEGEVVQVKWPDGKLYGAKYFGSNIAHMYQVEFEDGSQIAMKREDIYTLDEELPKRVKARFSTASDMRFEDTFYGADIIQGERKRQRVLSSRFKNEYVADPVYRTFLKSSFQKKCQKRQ
# Lysine-specific demethylase 5A, sequence (P29375 whole entry, the tested form may be a part): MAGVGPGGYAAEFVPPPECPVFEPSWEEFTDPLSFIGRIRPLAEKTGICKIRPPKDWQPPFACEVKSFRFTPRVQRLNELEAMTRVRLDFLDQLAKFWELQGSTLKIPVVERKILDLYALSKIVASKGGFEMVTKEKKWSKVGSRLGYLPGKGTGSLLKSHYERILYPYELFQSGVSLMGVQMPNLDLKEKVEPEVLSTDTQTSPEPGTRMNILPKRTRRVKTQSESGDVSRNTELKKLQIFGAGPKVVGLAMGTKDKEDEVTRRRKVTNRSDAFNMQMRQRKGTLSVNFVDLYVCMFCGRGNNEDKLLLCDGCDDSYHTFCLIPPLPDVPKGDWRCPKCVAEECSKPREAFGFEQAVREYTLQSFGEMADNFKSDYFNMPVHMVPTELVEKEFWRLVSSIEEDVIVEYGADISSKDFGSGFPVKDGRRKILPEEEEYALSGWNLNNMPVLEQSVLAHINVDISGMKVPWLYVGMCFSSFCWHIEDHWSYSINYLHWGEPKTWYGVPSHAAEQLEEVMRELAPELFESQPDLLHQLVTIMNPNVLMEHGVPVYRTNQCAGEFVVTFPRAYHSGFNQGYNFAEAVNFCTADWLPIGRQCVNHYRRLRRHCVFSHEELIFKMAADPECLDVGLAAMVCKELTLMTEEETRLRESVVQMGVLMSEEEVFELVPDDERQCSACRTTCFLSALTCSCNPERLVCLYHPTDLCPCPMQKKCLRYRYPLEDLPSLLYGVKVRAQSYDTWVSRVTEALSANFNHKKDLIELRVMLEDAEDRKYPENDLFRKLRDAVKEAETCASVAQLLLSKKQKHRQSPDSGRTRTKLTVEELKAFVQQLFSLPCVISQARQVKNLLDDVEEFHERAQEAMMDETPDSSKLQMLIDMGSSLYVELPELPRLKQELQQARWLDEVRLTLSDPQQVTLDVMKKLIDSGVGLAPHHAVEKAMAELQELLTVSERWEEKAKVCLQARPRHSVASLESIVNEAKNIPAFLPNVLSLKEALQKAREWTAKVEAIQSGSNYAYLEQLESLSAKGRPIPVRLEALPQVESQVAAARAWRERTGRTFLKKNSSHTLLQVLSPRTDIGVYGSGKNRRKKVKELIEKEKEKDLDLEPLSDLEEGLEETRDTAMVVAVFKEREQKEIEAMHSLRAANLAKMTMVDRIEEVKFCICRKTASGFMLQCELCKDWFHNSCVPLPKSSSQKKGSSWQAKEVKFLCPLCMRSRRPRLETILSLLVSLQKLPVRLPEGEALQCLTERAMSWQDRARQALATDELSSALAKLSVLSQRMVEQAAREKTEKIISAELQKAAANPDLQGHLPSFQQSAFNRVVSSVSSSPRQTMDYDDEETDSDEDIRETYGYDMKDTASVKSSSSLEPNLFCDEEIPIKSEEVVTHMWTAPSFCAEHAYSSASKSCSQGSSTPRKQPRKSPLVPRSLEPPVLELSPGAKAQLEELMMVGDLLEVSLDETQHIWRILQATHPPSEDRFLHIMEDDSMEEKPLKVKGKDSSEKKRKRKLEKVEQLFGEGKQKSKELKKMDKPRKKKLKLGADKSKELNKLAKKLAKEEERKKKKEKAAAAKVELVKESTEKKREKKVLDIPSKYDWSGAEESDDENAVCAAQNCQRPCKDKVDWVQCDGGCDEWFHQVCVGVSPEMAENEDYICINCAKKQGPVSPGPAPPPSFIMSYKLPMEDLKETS
# Lysine-specific demethylase 5B, sequence (Q9UGL1 whole entry, the tested form may be a part): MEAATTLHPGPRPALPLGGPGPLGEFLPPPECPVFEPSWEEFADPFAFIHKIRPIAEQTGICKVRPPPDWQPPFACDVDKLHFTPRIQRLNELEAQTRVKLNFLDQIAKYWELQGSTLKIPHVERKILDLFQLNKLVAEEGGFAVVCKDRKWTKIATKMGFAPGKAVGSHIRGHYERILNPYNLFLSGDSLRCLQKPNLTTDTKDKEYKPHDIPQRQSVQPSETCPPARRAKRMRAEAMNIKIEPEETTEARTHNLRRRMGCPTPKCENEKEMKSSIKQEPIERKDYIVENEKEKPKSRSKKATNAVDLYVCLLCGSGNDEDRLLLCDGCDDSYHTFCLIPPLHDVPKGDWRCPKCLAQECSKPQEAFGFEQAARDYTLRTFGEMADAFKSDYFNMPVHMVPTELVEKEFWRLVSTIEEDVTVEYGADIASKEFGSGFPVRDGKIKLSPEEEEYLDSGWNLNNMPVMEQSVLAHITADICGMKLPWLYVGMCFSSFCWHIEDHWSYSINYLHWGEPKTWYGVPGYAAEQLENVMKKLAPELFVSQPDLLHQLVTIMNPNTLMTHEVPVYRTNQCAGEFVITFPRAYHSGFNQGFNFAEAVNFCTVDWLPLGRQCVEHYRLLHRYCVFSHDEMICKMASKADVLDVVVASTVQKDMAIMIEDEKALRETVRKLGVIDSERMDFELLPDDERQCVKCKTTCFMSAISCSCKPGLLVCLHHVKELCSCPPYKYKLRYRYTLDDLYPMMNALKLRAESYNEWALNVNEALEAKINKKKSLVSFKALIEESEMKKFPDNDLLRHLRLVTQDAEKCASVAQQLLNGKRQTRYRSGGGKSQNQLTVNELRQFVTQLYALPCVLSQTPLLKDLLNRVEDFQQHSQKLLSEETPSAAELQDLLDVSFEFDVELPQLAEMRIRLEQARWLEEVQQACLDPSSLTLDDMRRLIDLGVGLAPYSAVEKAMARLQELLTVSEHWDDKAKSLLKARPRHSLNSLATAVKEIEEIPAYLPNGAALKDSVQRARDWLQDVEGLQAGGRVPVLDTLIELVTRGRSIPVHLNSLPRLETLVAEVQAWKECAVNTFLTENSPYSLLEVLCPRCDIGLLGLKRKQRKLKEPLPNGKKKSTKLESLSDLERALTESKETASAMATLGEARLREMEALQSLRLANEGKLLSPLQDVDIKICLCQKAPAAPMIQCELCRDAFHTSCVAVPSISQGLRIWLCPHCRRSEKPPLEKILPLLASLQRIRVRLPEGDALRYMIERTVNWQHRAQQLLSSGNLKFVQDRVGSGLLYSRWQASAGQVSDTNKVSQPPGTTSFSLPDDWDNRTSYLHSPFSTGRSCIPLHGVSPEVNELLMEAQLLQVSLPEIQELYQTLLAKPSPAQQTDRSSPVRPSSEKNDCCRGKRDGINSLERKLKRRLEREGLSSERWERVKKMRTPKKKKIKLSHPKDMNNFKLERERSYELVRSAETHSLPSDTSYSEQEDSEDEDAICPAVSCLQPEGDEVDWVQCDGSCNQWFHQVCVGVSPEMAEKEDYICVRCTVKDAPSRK
smiles,measurement,setting,value
O=C(O)c1ccnc(-n2nccc2OCc2ccc(F)c(OCc3ccc(F)cc3)c2)c1,IC50,[1],≤ 100 nM
same,IC50,[2],≤ 100 nM
same,IC50,[3],100 to 1000 nM
